{"source": "paper PMC3410894", "about": "“Structural and Biochemical Basis for Development of Influenza Virus Inhibitors Targeting the PA Endonuclease” (PLoS Pathogens, 2012)", "key": {"[1]": {"system": "H1N1 influenza A virus (A/PuertoRico/8/34)", "experiment": "microbe, parasite or virus in culture", "type": "cell-based", "conditions": "H1N1, MDCK, 72 h, read-out: Antiviral Activity IC50"}, "in vitro": {"experiment": "in vitro", "conditions": "dog"}, "PAN endonuclease": {"molecular_target": "PAN endonuclease (Influenza A virus, UniProt Q5EP34)", "type": "biochemical, H5N1 influenza virus A/Vietnam/1203/2004"}, "influenza A polymerase [2]": {"molecular_target": "influenza A polymerase", "conditions": "read-out: Reported IC50; cited from earlier work"}, "influenza A polymerase [3]": {"system": "influenza A polymerase", "type": "biochemical, influenza A virus"}, "influenza virus [4]": {"system": "influenza virus", "conditions": "cited from earlier work"}, "[5]": {"system": "H1N1 influenza A virus (A/PuertoRico/8/34)", "set-up": "method as in PMID 22211528", "conditions": "plaque formation, MDCK cells, 72 h, measured previously; read-out: Antiviral Activity IC50; cited from earlier work"}, "MDCK cells": {"system": "MDCK cells", "conditions": "cited from earlier work"}, "influenza virus [6]": {"system": "influenza virus", "conditions": "mouse, in vivo; cited from earlier work"}, "PAN": {"molecular_target": "PAN (Influenza A virus, UniProt Q5EP34)", "type": "binding, H5N1 influenza virus A/Vietnam/1203/2004"}}, "note": "Read-outs that look alike come from different tables or passages of the source."}
{"compound": "Cn1cnc(-c2nc(C(=O)O)c(O)c(=O)[nH]2)c1", "note": "[Compound 4, 5-hydroxy-2-(1-methyl-1H-imidazol-4-yl)-6-oxo-1,6-dihydropyrimidine-4-carboxylic acid]", "values": [{"measurement": "IC50", "setting": "[1]", "value": "> 50", "unit": "µM"}, {"measurement": "CC50 at 72 h", "setting": "in vitro", "value": "> 60", "unit": "µM"}, {"measurement": "Inhibition of PAN endonuclease activity", "setting": "PAN endonuclease", "value": "inhibit PAN activity"}]}
{"compound": "CC(C)/C=C1\\N=C(CC(C)C)C(=O)N(O)C1=O", "note": "[Compound 7, Flutimide]", "values": [{"measurement": "IC50", "setting": "influenza A polymerase [2]", "value": 5.5, "unit": "µM"}]}
{"compound": "NC(CC(=O)c1ccccc1)C(=O)O", "note": "(centres unmarked) [Compound 17]", "values": [{"measurement": "IC50", "setting": "influenza A polymerase [2]", "value": "> 500", "unit": "µM"}]}
{"compound": "CC(=O)C=C(O)C(=O)O", "note": "[Compound 14]", "values": [{"measurement": "IC50", "setting": "influenza A polymerase [2]", "value": 307, "unit": "µM"}, {"measurement": "Fold reduction in potency compared with 2", "setting": "influenza A polymerase [3]", "value": 14, "unit": "fold"}]}
{"compound": "O=C(O)/C(O)=C/C(=O)C1(Cc2ccc(Cl)cc2)CCN(CC2CCCCC2)CC1", "note": "[Compound 22]", "values": [{"measurement": "Inhibition of viral replication in cell culture (qualitative)", "setting": "influenza virus [4]", "value": "dose-dependent inhibition of viral replication in cell culture"}]}
{"compound": "O=C(O)/C(O)=C/C(=O)C1(Cc2ccc(Cl)cc2)CCCN(Cc2ccccc2)C1", "note": "[Compound 20, L-735,882]", "values": [{"measurement": "IC50", "setting": "influenza A polymerase [2]", "value": 1.1, "unit": "µM"}, {"measurement": "Inhibition of viral replication in cell culture (qualitative)", "setting": "influenza virus [4]", "value": "dose-dependent inhibition of viral replication in cell culture"}]}
{"compound": "C[C@@H](NC(=O)c1nc(-c2cnccn2)[nH]c(=O)c1O)c1ccccc1", "note": "[Compound 26]", "values": [{"measurement": "IC50", "setting": "[5]", "value": "12.68 ± 0.08", "unit": "µM"}, {"measurement": "CC50", "setting": "MDCK cells", "value": "> 60", "unit": "µM"}]}
{"compound": "CC(C)CC1=N/C(=C\\c2ccc(F)cc2)C(=O)NC1=O", "note": "[Compound 9]", "values": [{"measurement": "IC50", "setting": "influenza A polymerase [2]", "value": "> 365", "unit": "µM"}]}
{"compound": "O=C(O)c1nc(-c2cnccn2)nc(O)c1O", "note": "[Compound 24]", "values": [{"measurement": "IC50", "setting": "[5]", "value": "> 50", "unit": "µM"}, {"measurement": "CC50", "setting": "MDCK cells", "value": "> 60", "unit": "µM"}]}
{"compound": "O=C(O)/C(O)=C/C(=O)C1(Cc2ccc(Cl)cc2)CCN(Cc2ccccc2)CC1", "note": "[Compound 3, L-742,001]", "values": [{"measurement": "Inhibition of viral replication in mice (qualitative)", "setting": "influenza virus [6]", "value": "dose-dependent inhibition of viral replication"}, {"measurement": "IC50", "setting": "influenza virus [4]; read-out: IC50, inhibition of viral replication in cell culture", "value": 0.35, "unit": "µM"}, {"measurement": "Inhibition of PAN endonuclease activity", "setting": "PAN endonuclease", "value": "inhibited PAN enzymatic activity in a dose-dependent manner"}]}
{"compound": "CC(C)CC1=N/C(=C\\c2ccc(F)cc2)C(=O)N(O)C1=O", "note": "[Compound 8]", "values": [{"measurement": "IC50", "setting": "influenza A polymerase [2]", "value": 0.9, "unit": "µM"}, {"measurement": "Fold increase in potency compared with Flutimide", "setting": "influenza A polymerase [3]", "value": 6, "unit": "fold"}]}
{"compound": "COC(=O)c1nc(-c2cn(C)cn2)[nH]c(=O)c1O", "note": "[Compound 23]", "values": [{"measurement": "IC50", "setting": "[1]", "value": "> 50", "unit": "µM"}, {"measurement": "CC50 at 72 h", "setting": "in vitro", "value": "53.2 ± 0.9", "unit": "µM"}]}
{"compound": "COC(=O)c1nc(-c2cnccn2)[nH]c(=O)c1O", "note": "[Compound 25]", "values": [{"measurement": "IC50", "setting": "[1]", "value": "> 50", "unit": "µM"}, {"measurement": "CC50 at 72 h", "setting": "in vitro", "value": "> 60", "unit": "µM"}]}
{"compound": "O=C1Cc2ccccc2CC(=O)N1O", "note": "[Compound 11]", "values": [{"measurement": "IC50", "setting": "influenza A polymerase [2]", "value": "> 1000", "unit": "µM"}]}
{"compound": "CC(=O)Nc1cccc(-c2nc(C(=O)O)c(O)c(=O)[nH]2)c1", "note": "[Compound 5, 2-(3-acetamidophenyl)-5-hydroxy-6-oxo-1,6-dihydropyrimidine-4-carboxylic acid]", "values": [{"measurement": "IC50", "setting": "[1]", "value": "> 50", "unit": "µM"}, {"measurement": "CC50 at 72 h", "setting": "in vitro", "value": "48.7 ± 1.2", "unit": "µM"}, {"measurement": "Inhibition of PAN endonuclease activity", "setting": "PAN endonuclease", "value": "inhibit PAN activity"}]}
{"compound": "O=C(O)c1cccc(O)c1O", "note": "[Compound 6, dihydroxybenzoic acid]", "values": [{"measurement": "Inhibition of PAN endonuclease activity", "setting": "PAN endonuclease", "value": "little ability to inhibit PAN endonuclease activity"}]}
{"compound": "CC(C)C(=O)C=C(O)C(=O)O", "note": "[Compound 13]", "values": [{"measurement": "IC50", "setting": "influenza A polymerase [2]", "value": 56.7, "unit": "µM"}, {"measurement": "Fold reduction in potency compared with 2", "setting": "influenza A polymerase [3]", "value": 2.6, "unit": "fold"}]}
{"compound": "O=C(CC(O)C(=O)O)c1ccccc1", "note": "(centres unmarked) [Compound 16]", "values": [{"measurement": "IC50", "setting": "influenza A polymerase [2]", "value": "> 500", "unit": "µM"}]}
{"compound": "O=C(O)/C(O)=C/S(=O)(=O)c1ccccc1", "note": "[Compound 19]", "values": [{"measurement": "IC50", "setting": "influenza A polymerase [2]", "value": "> 500", "unit": "µM"}]}
{"compound": "O=C(O)/C(O)=C/C(=O)C1(Cc2ccc(Cl)cc2)CCCN(S(=O)(=O)Cc2ccccc2)C1", "note": "(centres unmarked) [Compound 21]", "values": [{"measurement": "IC50", "setting": "influenza A polymerase [2]", "value": 0.19, "unit": "µM"}, {"measurement": "Inhibition of viral replication in cell culture (qualitative)", "setting": "influenza virus [4]", "value": "dose-dependent inhibition of viral replication in cell culture"}]}
{"compound": "2,4-dioxo-4-phenylbutanoic acid [Compound 2]", "values": [{"measurement": "Inhibition of PAN endonuclease activity", "setting": "PAN endonuclease", "value": "inhibited PAN enzymatic activity in a dose-dependent manner"}, {"measurement": "ITC binding stoichiometry N (compound per PAN)", "setting": "PAN", "value": 1.86}]}
{"compound": "O=C1Cc2ccccc2C(=O)N1O", "note": "[Compound 1]", "values": [{"measurement": "Inhibition of PAN endonuclease activity", "setting": "PAN endonuclease", "value": "inhibited PAN enzymatic activity in a dose-dependent manner"}]}
